In US5684026A, “Aminocyclopentane derivative” (priority 1994, dated 1997):

How the values were obtained:
Assay type in all cases: biochemical
[1] = target: β-Galactosidase (Bovine liver. EC 3.2.1.23); test: β-Galactosidase (Bovine liver) enzyme inhibition assay (o-nitrophenyl β-D-galactopyranoside); details: pH 7.3, room temperature, 30 minutes
Procedure: (§1) By using a 96-well microplate, the absorbance (at 405 nm) of liberated p- or o-nitrophenol was measured with a microplate reader (MPR-4Ai, manufactured by Tosoh Corporation).
(§2) The enzymes employed herein [α-glucosidase (Baker's yeast), β-glucosidase (Almonds), α-galactosidase (E. coli), β-galactosidase (E. coli) and β-galactosidase (Bovine Liver)] were all purchased from Sigma.
(§3) The substrates (p- or o-nitrophenylglycoside) of these enzymes were all purchased from Sigma.
5) β-Galactosidase (Bovine liver. EC 3.2.1.23) [described in T. Aoyagi, T. Hazato, M. Kumagai, M. Hamada, T. Takeuchi and H. Umezawa, J. Antibiot., 28, 1006-1008 (1975)]
Into each well were introduced an aqueous solution of a sample (2 μl), a buffer (158 μl), a 20 mM solution of o-nitrophenyl β-D-galactopyranoside in a buffer (25 μl), a 100 mM 2-mercaptoethanol (10 μl) and a (5 mg/ml) enzyme solution in the buffer (5 μl) to give a total volume of 200 μl. After incubating at room temperature (20°-30° C.) for 30 minutes, the absorbance (A405) of o-nitrophenol liberated by this enzyme reaction was measured. To give the blank absorbance (Ablank), the sample (2 μl), the substrate (25 μl), the buffer solution (163 μl) and 2-mercaptoethanol (10 μl) were incubated in the same manner followed by the measurement of the absorbance. […] The IC50 was determined in the same manner as the one employed in the case of α-glucosidase.

[2] = test system: α-Galactosidase (E. Coli, EC. 3.2.1.22); test: α-Galactosidase enzyme inhibition assay (p-nitrophenyl α-D-galactopyranoside); details: pH 6.5, room temperature, 15 minutes
Procedure: as §1, §2, §3
3) α-Galactosidase (E. Coli, EC. 3.2.1.22) [described in H. Suzuki, S-C. Li and Y-T. Li, J. Biol. Chem., 245, 781-786 (1970)]
Into each well were introduced an aqueous solution of a sample (1 μl), a buffer (74 μl), a 9.9 mM solution of p-nitrophenyl α-D-galactopyranoside in a buffer (20 μl) and a (50 μg/ml) enzyme solution in the buffer (5 μl) to give a total volume of 100 μl. After incubating the resulting mixture at room temperature (20°-30° C.) for 15 minutes, the reaction was ceased by adding a 0.2M borate buffer solution (pH 9.8, prepared from NaOH and H3 BO3, 100 μl). Then the absorbance (A405) of p-nitrophenol liberated by this enzyme reaction was measured. To give the blank absorbance (Ablank), the sample (1 μl), the substrate (20 μl) and the buffer solution (79 μl) were incubated in the same manner and the 0.2M borate buffer solution (100 μl) was added followed by the measurement of the absorbance. To give the control absorbance ([…]), on the other hand, water (1 μl), the substrate (20 μl), the buffer solution (74 μl) and the enzyme solution (5 μl) were incubated in the same manner and the borate buffer solution (100 μl) was added followed by the measurement of the absorbance. A 0.1M phosphate buffer solution (pH 6.5, prepared from KH2 PO4 and K2 HPO4) was employed as the buffer for the enzyme reaction. The IC50 was determined in the same manner as employed in the case of α-glucosidase.

[3] = target: T1, α-Glucosidase (Baker's yeast, EC 3.2.1.20) (Saccharomyces cerevisiae, UniProt P53341); test: α-Glucosidase enzyme inhibition assay (p-nitrophenyl α-D-glucopyranoside); details: for IC50: pH 6.8, 37° C., 30 minutes, read-out: IC50 (M) α-Glucosidase (Baker's yeast)
T1 construct: purchased Sigma; host or cells: Baker's yeast
Procedure: as §1
(§4) Incubation was carried out at 37° C. by using a natural incubator (Compact NIB-10, manufactured by Iwaki Glass Co., Ltd.).
as §2, §3
1) α-Glucosidase (Baker's yeast, EC 3.2.1.20) [described in H. Halvorson and L. Ellias, Biochim. Biophys. Acta, 30, 28-40 (1958)]
Into each well were introduced an aqueous solution of a sample (1 μl), a 0.66 mM solution of p-nitrophenyl α-D-glucopyranoside in a buffer (98 μl) and a (0.4 mg/ml) enzyme solution in the buffer (1 μl) to give a total volume of 100 μl. After incubating at 37° C. for 30 minutes, the reaction was ceased by adding a 1M aqueous solution of sodium carbonate (100 μl). Then the absorbance (A405) of p-nitrophenol liberated by this enzyme reaction was measured. To give the blank absorbance (Ablank), the sample (1 μl) and the substrate (99 μl) were incubated in the same manner and an aqueous solution of sodium carbonate (100 μl) was added followed by the measurement of the absorbance. […] The sample at each concentration, the blank and the control were treated each in two wells at the same time. As the buffer, a 0.1M phosphate buffer solution (pH 6.8, prepared from KH2 PO4 and K2 HPO4) was employed.

[4] = target: β-Glucosidase (Almonds, EC 3.2.1.21); test: β-Glucosidase enzyme inhibition assay (p-nitrophenyl β-D-glucopyranoside); details: for IC50: pH 5.0, 37° C., 45 minutes
Procedure: as §1, §4, §2, §3
2) β-Glucosidase (Almonds, EC 3.2.1.21) [described in A. Kobayashi, Agr. Biol. Chem., 26, 203-207 (1962)]
Into each well were introduced an aqueous solution of a sample (1 μl), a 0.33 mM solution of p-nitrophenyl β-D-glucopyranoside in a buffer (98 μl) and a (0.4 mg/ml) enzyme solution in the buffer (1 μl) to give a total volume of 100 μl. After incubating at 37° C. for 45 minutes, the reaction was ceased by adding a 1M aqueous solution of sodium carbonate (100 μl). Then the absorbance (A405) of p-nitrophenol liberated by this enzyme reaction was measured. To give the blank absorbance (Ablank), the sample (1 μl) and the substrate (99 μl) were incubated in the same manner and an aqueous solution of sodium carbonate (100 μl) was added followed by the measurement of the absorbance. […] As the buffer, a 0.1M acetate buffer solution (pH 5.0, prepared from NaOAc and AcOH) was employed. The IC50 was determined in the same manner as employed in the case of α-glucosidase.

[5] = target: T2, β-Galactosidase (E. Coli, EC. 3.2.1.23) (Escherichia coli, UniProt P00722); test: β-Galactosidase (E. coli) enzyme inhibition assay (o-nitrophenyl β-D-galactopyranoside)
T2 construct: purchased Sigma; host or cells: E. coli
Procedure: as §1, §2, §3
4) β-Galactosidase (E. Coli, EC. 3.2.1.23) [described in G. R. Craven, E. Steers, Jr. and C. B. Anfinsen, J. Biol. Chem., 240, 2468-2477 (1965)]
Into each well were introduced an aqueous solution of a sample (2 μl), a buffer (153 μl), a 20 mM solution of o-nitrophenyl β-D-galactopyranoside in a buffer (25 μl), a 100 mM 2-mercaptoethanol (10 μl) and a (10 μg/ml) enzyme solution in the buffer (10 μl) to give a total volume of 200 μl. After incubating at room temperature (20°-30° C.) for 30 minutes, the absorbance (A405) of o-nitrophenol liberated by this enzyme reaction was measured. To give the blank absorbance (Ablank), the sample (2 μl), the substrate (25 μl), the buffer solution (163 μl) and 2-mercaptoethanol (10 μl) were incubated in the same manner followed by the measurement of the absorbance. To give the control absorbance (Acontrol), on the other hand, water (2 μl), the substrate (25 μl), the buffer solution (153 μl), 2-mercaptoethanol (10 μl) and the enzyme solution (10 μl) were incubated in the same manner followed by the measurement of the absorbance. A 50 mM phosphate buffer solution (pH 7.3, prepared from KH2 PO4 and K2 HPO4, containing 1.3 mM of MgCl2) was employed as the buffer for the enzyme reaction. The IC50 was determined in the same manner as employed in the case of α-glucosidase.

T1 sequence (P53341 whole entry): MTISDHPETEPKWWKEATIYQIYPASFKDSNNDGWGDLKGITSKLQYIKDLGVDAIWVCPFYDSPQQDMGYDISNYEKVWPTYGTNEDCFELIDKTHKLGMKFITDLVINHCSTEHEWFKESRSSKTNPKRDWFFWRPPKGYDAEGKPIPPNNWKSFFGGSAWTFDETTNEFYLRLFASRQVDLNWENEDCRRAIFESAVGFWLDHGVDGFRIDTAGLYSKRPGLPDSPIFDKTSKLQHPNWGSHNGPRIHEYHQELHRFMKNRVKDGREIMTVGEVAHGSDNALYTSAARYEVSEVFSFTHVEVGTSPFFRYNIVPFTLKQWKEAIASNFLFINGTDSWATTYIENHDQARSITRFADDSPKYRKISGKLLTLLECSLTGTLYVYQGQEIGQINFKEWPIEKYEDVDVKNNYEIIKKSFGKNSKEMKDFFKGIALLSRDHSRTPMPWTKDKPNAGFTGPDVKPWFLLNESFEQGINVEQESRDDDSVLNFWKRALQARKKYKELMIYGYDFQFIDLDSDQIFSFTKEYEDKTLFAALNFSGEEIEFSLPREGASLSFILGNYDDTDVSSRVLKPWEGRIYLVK
T2 sequence (P00722 2-1024 limits assumed): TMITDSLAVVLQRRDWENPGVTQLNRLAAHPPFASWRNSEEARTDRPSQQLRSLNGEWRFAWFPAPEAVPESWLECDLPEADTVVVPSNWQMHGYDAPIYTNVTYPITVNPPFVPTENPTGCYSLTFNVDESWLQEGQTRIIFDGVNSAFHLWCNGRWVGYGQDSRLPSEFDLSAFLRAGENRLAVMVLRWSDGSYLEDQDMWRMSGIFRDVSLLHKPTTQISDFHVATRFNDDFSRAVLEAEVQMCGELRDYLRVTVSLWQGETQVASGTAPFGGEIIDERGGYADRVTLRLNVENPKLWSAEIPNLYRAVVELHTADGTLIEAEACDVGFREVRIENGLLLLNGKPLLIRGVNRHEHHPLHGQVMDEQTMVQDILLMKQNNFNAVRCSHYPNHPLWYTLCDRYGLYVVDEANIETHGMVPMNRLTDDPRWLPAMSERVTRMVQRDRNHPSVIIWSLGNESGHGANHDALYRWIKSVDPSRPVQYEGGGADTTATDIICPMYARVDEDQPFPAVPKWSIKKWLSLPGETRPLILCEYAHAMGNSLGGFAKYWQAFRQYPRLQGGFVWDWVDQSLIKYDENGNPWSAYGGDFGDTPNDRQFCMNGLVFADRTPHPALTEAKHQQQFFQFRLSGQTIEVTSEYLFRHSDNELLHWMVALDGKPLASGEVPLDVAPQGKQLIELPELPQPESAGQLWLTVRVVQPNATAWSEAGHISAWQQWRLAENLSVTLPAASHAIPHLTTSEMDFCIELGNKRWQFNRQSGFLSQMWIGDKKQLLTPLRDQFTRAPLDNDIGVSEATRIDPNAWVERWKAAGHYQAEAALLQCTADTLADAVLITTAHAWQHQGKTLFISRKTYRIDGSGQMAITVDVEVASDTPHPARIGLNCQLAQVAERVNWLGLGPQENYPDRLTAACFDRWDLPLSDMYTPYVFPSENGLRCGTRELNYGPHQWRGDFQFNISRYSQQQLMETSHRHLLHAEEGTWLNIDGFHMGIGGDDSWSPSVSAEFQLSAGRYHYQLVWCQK

SMILES: OC[C@@]1(O)[C@H](O)C(O)[C@@H]2OC(Nc3ccccc3)=N[C@@H]21 (stereo in doubt) [Compound 1-1D, (1R,5S,6R,7R,8S)-6-hydroxymethyl-3-phenylamino-2-oxa-4-azabicyclo[3.3.0]oct-3-ene-6,7,8-triol]
- IC50 [1]: 3 µM
- IC50 [2]: > 300 µM
- IC50 [3]: 2.32e-06 M
- IC50 [4]: > 300 µM
- IC50 [5]: > 300 µM

SMILES: OC[C@@]1(O)[C@@H]2N=C(Nc3ccccc3)O[C@@H]2C(O)[C@@H]1O (stereo in doubt) [Compound 1-1L, (1S,5R,6S,7S,8R)-6-hydroxymethyl-3-phenylamino-2-oxa-4-azabicyclo[3.3.0]oct-3-ene-6,7,8-triol]
- IC50 [1]: 153 µM
- IC50 [2]: > 300 µM
- inhibitory activity against α-glucosidase (in words) ([3]; compared with deoxynojirimycin, summary of Tables 1 and 2): remarkably strong inhibitory activities
- IC50 [3]: 2.93e-08 M
- IC50 [4]: > 300 µM
- inhibitory activity against β-glucosidase (in words) ([4]; summary of Table 1): weak inhibitory activities
- IC50 [5]: > 300 µM
